From patent publication US7829665B2 (priority 2005, dated 2010)
Read-outs that look alike come from different tables or passages of the source.

What was measured:
[1] = tested on: HCV sub-genomic replicon in GS4.3 cells (HuH-7 hepatoma cells); experiment: Quantitation by ELISA of Neomycin phosphotransferase II (NPTII) in the HCV sub-genomic replicon, GS4.3; assay type: cell-based, hepatitis C virus; details: Hepatitis C virus, Huh-7
Procedure, shortened: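 HuH-7 GS4.3 cells carrying HCV sub-genomic replicon 1377/NS3-3′, treated 72 h at 37 °C without G418 with 3-fold dilutions from 10 μM to 56 pM (1% DMSO). NPTII in cell lysates measured by direct ELISA with TMB readout at 450 nm. EC50 from 4-parameter fit of percent DMSO-control signal.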

[2] = molecular target: T1, full-length NS3/NS4A-2 (HCV NS3 protease) (Hepatitis C virus genotype 1a, UniProt P27958); experiment: NS3-NS4 protease assay / NS3 inhibition assay (RETS1 substrate, fluorescence kinetic read); assay type: biochemical
T1 construct: Recombinant E. coli or Baculovirus full-length NS3 was diluted to 3.33 μM with assay buffer; made in house; host or cells: E. coli or baculovirus (BV) expression system
Procedure, shortened: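 Full-length NS3 from E. coli (2 nM in assay) or baculovirus (3 nM) was precomplexed with excess NS4A-2 peptide, then preincubated 10 min at room temperature with serially diluted compounds starting at 50 microM. Reaction was started with RETS1 substrate at 8 μM before addition and read kinetically for 30 min (ex 335/em 495 nm). Four-parameter IC50s were converted to Ki by Cheng-Prusoff using Km 2.03 μM (E. coli) or 1.74 μM (BV).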

[3] = recombinant E. coli or Baculovirus full-length NS3 with NS4A-2, read-out: NS3-NS4 IC50
[4] = GS4.3 cells, 72 h incubation, NPTII ELISA, read-out: Replicon EC50

T1 sequence (P27958 1027-1657): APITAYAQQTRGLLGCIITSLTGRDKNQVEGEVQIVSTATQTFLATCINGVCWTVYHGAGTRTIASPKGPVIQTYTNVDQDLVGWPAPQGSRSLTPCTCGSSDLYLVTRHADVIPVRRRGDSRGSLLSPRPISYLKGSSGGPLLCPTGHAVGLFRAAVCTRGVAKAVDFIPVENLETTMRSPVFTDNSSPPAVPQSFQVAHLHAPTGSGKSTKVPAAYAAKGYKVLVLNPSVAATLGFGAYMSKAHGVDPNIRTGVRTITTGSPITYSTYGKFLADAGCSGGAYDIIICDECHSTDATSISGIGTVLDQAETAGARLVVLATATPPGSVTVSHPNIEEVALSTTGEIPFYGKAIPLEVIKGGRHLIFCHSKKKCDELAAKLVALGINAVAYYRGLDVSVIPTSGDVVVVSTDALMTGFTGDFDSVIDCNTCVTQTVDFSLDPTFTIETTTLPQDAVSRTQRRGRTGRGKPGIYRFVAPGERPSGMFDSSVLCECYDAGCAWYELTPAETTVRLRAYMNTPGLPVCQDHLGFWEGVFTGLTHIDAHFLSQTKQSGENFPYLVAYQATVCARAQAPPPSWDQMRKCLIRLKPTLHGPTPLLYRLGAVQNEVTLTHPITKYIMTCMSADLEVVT

Row | SMILES | EC50 ([1]; Table 26, read-out: EC50) [nM] | IC50 [2, 3] [nM] | EC50 [1, 4] [nM] | IC50 [2] [nM]
1 | COc1ccc(CC(=O)N[C@H]2CCCCC/C=C\[C@@H]3C[C@@]3(C(=O)NS(=O)(=O)C3CC3)NC(=O)[C@@H]3CCCN3C2=O)cc1 [Compound 2138, (1S,4R,6S,14S)N—((Z)-4-Cyclopropanesulfonylaminocarbonyl-2,15-dioxo-3,16-diaza-tricyclo[14.3.0.0^4,6]nonadec-7-ene-14-yl)-2-(4-methoxy-phenyl)-acetamide] | < 1000 | > 10000 | – | –
2 | O=C(N[C@H]1CCCCC/C=C\[C@@H]2C[C@@]2(C(=O)NS(=O)(=O)c2ccccc2)NC(=O)[C@@H]2C[C@@H](OC(=O)N3CCc4ccccc4C3)CN2C1=O)OC1CCCC1 [Compound 117] | – | < 100 | < 100 | –
3 | O=C(N[C@H]1CCCCC/C=C\[C@@H]2C[C@@]2(C(=O)NS(=O)(=O)C2CCCCC2)NC(=O)[C@@H]2C[C@@H](OC(=O)N3CCc4ccccc4C3)CN2C1=O)OC1CCCC1 [Compound 189] | – | < 100 | < 1000 | –
4 | CC(C)(C)OC(=O)N[C@H]1CCC(F)(F)CC/C=C\[C@@H]2C[C@@]2(C(=O)O)NC(=O)[C@@H]2C[C@@H](OC(=O)N3CCc4ccccc4C3)CN2C1=O [Compound 1013] | – | < 100 | < 100 | –
5 | CC(C)(C)OC(=O)N[C@H]1COCCCCC[C@@H]2C[C@@]2(C(=O)NS(=O)(=O)C2CC2)NC(=O)[C@@H]2C[C@@H](OC(=O)N3Cc4cccc(F)c4C3)CN2C1=O [Compound 1022, (2R,6S,13aR,14aR,16aS)-6-(tert-butoxycarbonylamino)-14a-(cyclopropylsulfonylcarbamoyl)-5,16-dioxohexadecahydro-1H-cyclopropa(i)pyrrolo[1,2-e][1,5,8]oxadiazacyclopentadecin-2-yl 4-fluoroisoindoline-2-carboxylate] | – | < 100 | < 100 | –
6 | O=C1N[C@]2(C(=O)NCC3CC3)C[C@H]2/C=C\CCCCC[C@H](NCc2ccc(F)c(F)c2)C(=O)N2C[C@H](OC(=O)N3Cc4cccc(F)c4C3)C[C@@H]12 [Compound 626] | – | < 1000 | < 10000 | –
7 | O=C1N[C@]2(C(=O)NS(=O)(=O)C3CC3)C[C@H]2/C=C\CCCCC[C@H](NC2CCCC2)C(=O)N2C[C@H](OC(=O)N3Cc4cccc(F)c4C3)C[C@@H]12 [Compound 919] | – | < 100 | < 10000 | –
8 | O=C1N[C@]2(C(=O)NS(=O)(=O)C3CC3)C[C@H]2/C=C\CCCCC[C@H](Nc2nc(-c3ccccc3)cs2)C(=O)N2C[C@H](OC(=O)N3Cc4cccc(Cl)c4C3)C[C@@H]12 [Compound 929] | – | < 100 | < 100 | –
9 | CN(C)S(=O)(=O)NC(=O)[C@@]12C[C@H]1/C=C\CCCCC[C@H](NC(=O)OC1CCCC1)C(=O)N1C[C@H](OC(=O)N3Cc4cccc(F)c4C3)C[C@H]1C(=O)N2 [Compound 215] | – | < 100 | < 100 | –
10 | CC(C)(C)OC(=O)N[C@H]1CCCCC/C=C\[C@@H]2C[C@@]2(C(=O)NCCF)NC(=O)[C@@H]2C[C@@H](OC(=O)N3Cc4cccc(F)c4C3)CN2C1=O [Compound 611] | – | < 1000 | < 10000 | –
11 | CC(C)(C)OC(=O)N[C@H]1CCCCC/C=C\[C@@H]2C[C@@]2(C(=O)NCC#N)NC(=O)[C@@H]2C[C@@H](OC(=O)N3Cc4cccc(F)c4C3)CN2C1=O [Compound 615] | – | < 1000 | < 10000 | –
12 | O=C(N[C@H]1CCCCC/C=C\[C@@H]2C[C@@]2(C(=O)NS(=O)(=O)N2CC(F)(F)C2)NC(=O)C2C[C@@H](OC(=O)N3Cc4cccc(Cl)c4C3)CN2C1=O)OC1CCCC1 (stereo partly drawn) [Compound 228] | – | < 100 | < 100 | –
13 | N[C@H]1CCCCC/C=C\[C@@H]2C[C@@]2(C(=O)NS(=O)(=O)N2CCCC2)NC(=O)[C@@H]2C[C@@H](OC(=O)N3Cc4cccc(Cl)c4C3)CN2C1=O [Compound 220] | – | – | < 1000 | < 100
14 | O=C(N[C@H]1CCCCC/C=C\[C@@H]2C[C@@]2(C(=O)NC(=O)C2CC2)NC(=O)[C@@H]2C[C@@H](OC(=O)N3CCc4ccccc4C3)CN2C1=O)OC1CCCC1 [Compound 706] | – | < 100 | < 100 | –
15 | CN(Cc1ccccc1)C(=O)O[C@@H]1C[C@H]2C(=O)N[C@]3(C(=O)NS(=O)(=O)C4CC4)C[C@H]3/C=C\CCCCC[C@H](NC(=O)OC(C)(C)C)C(=O)N2C1 [Compound 245] | – | < 100 | < 1000 | –
16 | CC(C)(C)OC(=O)N[C@H]1CCCCCC[C@@H]2C[C@@]2(C(=O)NS(=O)(=O)C2CC2)NC(=O)[C@@H]2C[C@@H](OC(=O)N3Cc4cccc(F)c4C3)CN2C1=O [Compound 269] | – | < 100 | < 100 | –
17 | CC(C)(C)OC(=O)N[C@H]1CCCCC/C=C\[C@@H]2C[C@@]2(C(=O)Nc2ccccc2)NC(=O)[C@@H]2C[C@@H](OC(=O)N3Cc4ccccc4C3)CN2C1=O [Compound 601] | – | < 100 | < 1000 | –
18 | O=C1N[C@]2(C(=O)NS(=O)(=O)C3CC3)C[C@H]2/C=C\CCCCC[C@H](Nc2c(N3CCC3)c(=O)c2=O)C(=O)N2C[C@H](OC(=O)N3Cc4cccc(F)c4C3)C[C@@H]12 [Compound 193] | – | < 100 | < 1000 | –
19 | CC(C)(C)OC(=O)N[C@H]1CCCCC/C=C\[C@@H]2C[C@@]2(C(=O)N[C@@H]2CCS(=O)(=O)C2)NC(=O)[C@@H]2C[C@@H](OC(=O)N3Cc4cccc(F)c4C3)CN2C1=O [Compound 633] | – | < 1000 | < 1000 | –
20 | CCCC1(S(=O)(=O)NC(=O)[C@@]23C[C@H]2/C=C\CCCCC[C@H](NC(=O)OC(C)(C)C)C(=O)N2C[C@H](OC(=O)N4Cc5ccccc5C4)C[C@H]2C(=O)N3)CC1 [Compound 104] | – | < 100 | < 100 | –
21 | CC(C)(C)OC(=O)N[C@H]1CCCCC/C=C\[C@@H]2C[C@@]2(C(=O)NS(=O)(=O)C2(Cc3ccccc3)CC2)NC(=O)[C@@H]2C[C@@H](OC(=O)N3Cc4cccc(Cl)c4C3)CN2C1=O [Compound 161] | – | < 100 | < 100 | –
22 | O=C1N[C@]2(C(=O)NS(=O)(=O)C3CC3)C[C@H]2/C=C\CCCCC[C@H](NCCC(F)(F)F)C(=O)N2C[C@H](OC(=O)N3Cc4cccc(F)c4C3)C[C@@H]12 [Compound 900] | – | < 100 | < 100 | –
23 | O=C1N[C@]2(C(=O)NS(=O)(=O)C3CC3)C[C@H]2/C=C\CCCCC[C@H](NC(=O)C2(O)CC2)C(=O)N2C[C@H](OC(=O)N3Cc4cccc(F)c4C3)C[C@@H]12 [Compound 249] | – | < 100 | < 1000 | –
24 | CN(C)CCOc1ccc2c(c1)CN(C(=O)O[C@@H]1C[C@H]3C(=O)N[C@]4(C(=O)NS(=O)(=O)C5CC5)C[C@H]4/C=C\CCCCC[C@H](NC(=O)OC4CCCC4)C(=O)N3C1)C2 [Compound 134] | – | < 100 | < 100 | –
25 | CC(C)(C)OC(=O)N[C@H]1CCCCC/C=C\[C@@H]2C[C@@]2(C(=O)NC2CC2)NC(=O)[C@@H]2C[C@@H](OC(=O)N3Cc4cccc(F)c4C3)CN2C1=O [Compound 609] | – | < 100 | < 1000 | –
26 | CC(C)(C)OC(=O)N[C@H]1CCCCC/C=C\[C@@H]2C[C@@]2(C(=O)O)NC(=O)[C@@H]2C[C@@H](OC(=O)N3Cc4cccc(Cl)c4C3)CN2C1=O [Compound 113] | – | < 100 | < 1000 | –
27 | O=C1N[C@]2(C(=O)NS(=O)(=O)C3CC3)C[C@H]2/C=C\CCCCC[C@H](Nc2nc(-c3ccccc3)cs2)C(=O)N2C[C@H](OC(=O)N3Cc4cccc(F)c4C3)C[C@@H]12 [Compound 927, (2R,6S,13aS,14aR,16aS,Z)-14a-(cyclopropylsulfonylcarbamoyl)-5,16-dioxo-6-(4-phenylthiazol-2-ylamino)-1,2,3,5,6,7,8,9,10,11,13a,14,14a,15,16,16a-hexadecahydrocyclopropa[e]pyrrolo[1,2-a][1,4]diazacyclopentadecin-2-yl 4-fluoroisoindoline-2-carboxylate] | – | < 100 | < 100 | –
28 | O=C(CCC(F)(F)F)N[C@H]1CCCCC/C=C\[C@@H]2C[C@@]2(C(=O)O)NC(=O)[C@@H]2C[C@@H](OC(=O)N3Cc4ccccc4C3)CN2C1=O [Compound 136] | – | < 100 | > 10000 | –
29 | O=C(N[C@H]1CCCCC/C=C\[C@@H]2C[C@@]2(C(=O)NS(=O)(=O)c2cccs2)NC(=O)[C@@H]2C[C@@H](OC(=O)N3CCc4ccccc4C3)CN2C1=O)OC1CCCC1 [Compound 190] | – | < 100 | < 100 | –
30 | N[C@H]1CCCCC/C=C\[C@@H]2C[C@@]2(C(=O)NS(=O)(=O)NC2CCCC2)NC(=O)[C@@H]2C[C@@H](OC(=O)N3Cc4cccc(Cl)c4C3)CN2C1=O [Compound 221] | – | < 100 | < 10000 | –
